{
  "source": "ChEMBL document CHEMBL1201862",
  "about": "“PubChem BioAssay data set” (2004)",
  "test_in_all_cases": "NCI anticancer screen, dose series, 48 h",
  "key": {"UACC-257": {"system": "UACC-257"}, "MDA-MB-435": {"system": "MDA-MB-435"}, "RPMI-8226": {"system": "RPMI-8226"}, "ACHN": {"system": "ACHN"}, "SR": {"system": "SR"}, "HCT-15": {"system": "HCT-15"}, "UO-31": {"system": "UO-31"}, "SN12C": {"system": "SN12C"}, "EKVX": {"system": "EKVX"}, "SF-295": {"system": "SF-295"}, "HOP-62": {"system": "HOP-62"}, "A498": {"system": "A498"}, "Malme-3M": {"system": "Malme-3M"}, "SK-MEL-28": {"system": "SK-MEL-28"}, "HCT-116": {"system": "HCT-116"}, "K562": {"system": "K562"}, "SW-620": {"system": "SW-620"}, "U-251": {"system": "U-251"}, "SK-MEL-2": {"system": "SK-MEL-2"}, "HOP-92": {"system": "HOP-92"}, "MDA-MB-231": {"system": "MDA-MB-231"}, "CAKI-1": {"system": "CAKI-1"}, "IGROV-1": {"system": "IGROV-1"}, "CCRF-CEM": {"system": "CCRF-CEM"}, "UACC-62": {"system": "UACC-62"}, "TK-10": {"system": "TK-10"}, "OVCAR-3": {"system": "OVCAR-3"}, "LOX IMVI": {"system": "LOX IMVI"}, "NCI/ADR-RES": {"system": "NCI/ADR-RES"}, "DU-145": {"system": "DU-145"}, "Hs-578T": {"system": "Hs-578T"}, "HT-29": {"system": "HT-29"}, "A549": {"system": "A549"}, "SF-539": {"system": "SF-539"}, "MCF7": {"system": "MCF7"}, "NCI-H522": {"system": "NCI-H522"}, "OVCAR-8": {"system": "OVCAR-8"}, "HCC 2998": {"system": "HCC 2998"}, "NCI-H460": {"system": "NCI-H460"}, "OVCAR-5": {"system": "OVCAR-5"}, "T47D": {"system": "T47D"}, "OVCAR-4": {"system": "OVCAR-4"}, "M14": {"system": "M14"}, "PC-3": {"system": "PC-3"}, "SK-OV-3": {"system": "SK-OV-3"}, "BT-549": {"system": "BT-549"}, "SK-MEL-5": {"system": "SK-MEL-5"}, "786-0": {"system": "786-0"}, "COLO 205": {"system": "COLO 205"}, "RXF 393": {"system": "RXF 393"}, "KM12": {"system": "KM12"}, "MOLT-4": {"system": "MOLT-4"}, "SNB-19": {"system": "SNB-19"}, "NCI-H23": {"system": "NCI-H23"}, "SF-268": {"system": "SF-268"}, "HL-60": {"system": "HL-60"}, "NCI-H226": {"system": "NCI-H226"}, "SNB-75": {"system": "SNB-75"}},
  "note": "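1) Cells in 96-well plates. 2) Compound, 48 h, 5 concentrations. 3) Linear interpolation between surrounding doses. 4) Unreached endpoint = highest concentration. Abbreviation: GI50, concentration required for 50% inhibition of growth.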 Activity calls are given as the source filed them. Cut-off read from the data, not from the text of the source: active = GI50 up to about 1.1 µM and inactive = higher.",
  "data": [
    {"smiles": "C[C@H]1CC(=O)C[C@@H]2CC[C@@H]3[C@H](CC[C@]4(C)C(OC(=O)c5cccc6c(=O)c7ccccc7[nH]c56)CC[C@@H]34)[C@]21C", "note": "(stereo partly drawn)", "values": [
      {"measurement": "GI50", "setting": "UACC-257", "value": "32.6 µM (inactive)"},
      {"measurement": "GI50", "setting": "MDA-MB-435", "value": "36.4 µM (inactive)"},
      {"measurement": "GI50", "setting": "RPMI-8226", "value": "11.1 µM (inactive)"},
      {"measurement": "GI50", "setting": "ACHN", "value": "34.4 µM (inactive)"},
      {"measurement": "GI50", "setting": "SR", "value": "4.8 µM (inactive)"},
      {"measurement": "GI50", "setting": "HCT-15", "value": 31.3, "unit": "µM"},
      {"measurement": "GI50", "setting": "UO-31", "value": "24.2 µM (inactive)"},
      {"measurement": "GI50", "setting": "SN12C", "value": "46 µM (inactive)"},
      {"measurement": "GI50", "setting": "EKVX", "value": "31.1 µM (inactive)"},
      {"measurement": "GI50", "setting": "SF-295", "value": "38.5 µM (inactive)"},
      {"measurement": "GI50", "setting": "HOP-62", "value": "36.6 µM (inactive)"},
      {"measurement": "GI50", "setting": "A498", "value": "30.1 µM (inactive)"},
      {"measurement": "GI50", "setting": "Malme-3M", "value": "92.5 µM (inactive)"},
      {"measurement": "GI50", "setting": "SK-MEL-28", "value": "38.2 µM (inactive)"},
      {"measurement": "GI50", "setting": "HCT-116", "value": "33.3 µM (inactive)"},
      {"measurement": "GI50", "setting": "K562", "value": "23.6 µM (inactive)"},
      {"measurement": "GI50", "setting": "SW-620", "value": "55.5 µM (inactive)"},
      {"measurement": "GI50", "setting": "U-251", "value": "33.1 µM (inactive)"},
      {"measurement": "GI50", "setting": "SK-MEL-2", "value": "28.6 µM (inactive)"},
      {"measurement": "GI50", "setting": "HOP-92", "value": "16 µM (inactive)"},
      {"measurement": "GI50", "setting": "MDA-MB-231", "value": "23.6 µM (inactive)"},
      {"measurement": "GI50", "setting": "CAKI-1", "value": "10 µM (inactive)"},
      {"measurement": "GI50", "setting": "IGROV-1", "value": "38.5 µM (inactive)"},
      {"measurement": "GI50", "setting": "CCRF-CEM", "value": "23.8 µM (inactive)"},
      {"measurement": "GI50", "setting": "UACC-62", "value": "21.6 µM (inactive)"},
      {"measurement": "GI50", "setting": "TK-10", "value": "64.7 µM (inactive)"},
      {"measurement": "GI50", "setting": "OVCAR-3", "value": "47.2 µM (inactive)"},
      {"measurement": "GI50", "setting": "LOX IMVI", "value": "31.2 µM (inactive)"},
      {"measurement": "GI50", "setting": "NCI/ADR-RES", "value": "20.4 µM (inactive)"},
      {"measurement": "GI50", "setting": "DU-145", "value": "54.3 µM (inactive)"},
      {"measurement": "GI50", "setting": "Hs-578T", "value": "46.8 µM (inactive)"},
      {"measurement": "GI50", "setting": "HT-29", "value": "32.5 µM (inactive)"},
      {"measurement": "GI50", "setting": "A549", "value": "23.2 µM (inactive)"},
      {"measurement": "GI50", "setting": "SF-539", "value": "> 100 µM (inactive)"},
      {"measurement": "GI50", "setting": "MCF7", "value": "62.5 µM (inactive)"},
      {"measurement": "GI50", "setting": "NCI-H522", "value": "18.7 µM (inactive)"},
      {"measurement": "GI50", "setting": "OVCAR-8", "value": "23.8 µM (inactive)"},
      {"measurement": "GI50", "setting": "HCC 2998", "value": "47 µM (inactive)"},
      {"measurement": "GI50", "setting": "NCI-H460", "value": "26.7 µM (inactive)"},
      {"measurement": "GI50", "setting": "OVCAR-5", "value": "> 100 µM (inactive)"},
      {"measurement": "GI50", "setting": "T47D", "value": "32.7 µM (inactive)"},
      {"measurement": "GI50", "setting": "OVCAR-4", "value": "26.1 µM (inactive)"},
      {"measurement": "GI50", "setting": "M14", "value": "30.6 µM (inactive)"},
      {"measurement": "GI50", "setting": "PC-3", "value": "14.8 µM (inactive)"},
      {"measurement": "GI50", "setting": "SK-OV-3", "value": "16.3 µM (inactive)"},
      {"measurement": "GI50", "setting": "BT-549", "value": "26.7 µM (inactive)"},
      {"measurement": "GI50", "setting": "SK-MEL-5", "value": "16 µM (inactive)"},
      {"measurement": "GI50", "setting": "786-0", "value": "48 µM (inactive)"},
      {"measurement": "GI50", "setting": "COLO 205", "value": "22 µM (inactive)"},
      {"measurement": "GI50", "setting": "RXF 393", "value": "39.2 µM (inactive)"},
      {"measurement": "GI50", "setting": "KM12", "value": "30.4 µM (inactive)"},
      {"measurement": "GI50", "setting": "MOLT-4", "value": "5.28 µM (inactive)"},
      {"measurement": "GI50", "setting": "SNB-19", "value": "> 100 µM (inactive)"},
      {"measurement": "GI50", "setting": "NCI-H23", "value": "30.6 µM (inactive)"},
      {"measurement": "GI50", "setting": "SF-268", "value": "57.5 µM (inactive)"},
      {"measurement": "GI50", "setting": "HL-60", "value": "14.3 µM (inactive)"},
      {"measurement": "GI50", "setting": "NCI-H226", "value": "28.2 µM (inactive)"},
      {"measurement": "GI50", "setting": "SNB-75", "value": "31.1 µM (inactive)"}
    ]}
  ]
}
